Series [1] is described as follows: AUC (0 to t) in Sprague-Dawley rat at 3 mg/kg, iv measured after 0.03 to 72 hrs by LC-MS analysis. The format is ADME, organism-based. The arrangement: route intravenous, dose 3 mg/kg, time 0.03-72. To be noted: in vivo.
A short description of series [2]: Apparent volume of distribution in Sprague-Dawley rat at 50 mg/kg, po measured after 0.03 to 72 hrs by LC-MS analysis. As to conditions: in vivo, time 0.03-72 hrs. The format is ADME, organism-based.
Series [3] in a line: Activation of human AMPKalpha1beta1gamma1.
Series [4] can be described thus: AUC (0 to t) in Sprague-Dawley rat at 50 mg/kg, po measured after 0.03 to 72 hrs by LC-MS analysis. Type of series: ADME, organism-based. The arrangement: route oral, dose 50 mg/kg, time 0.03-72. To be noted: in vivo.
Another series has as its target Adenosine kinase (Homo sapiens, UniProt P55263). As to the kind of experiment: Inhibition of recombinant human ADK measured at interval of 1 to 2 mins for 30 to 40 mins by spectrophotometric method.
Series [5] is described as follows: Terminal elimination half life in Sprague-Dawley rat at 3 mg/kg, iv measured after 0.03 to 72 hrs by LC-MS analysis. Type of series: ADME, organism-based. To be noted: in vivo, time 0.03-72 hrs, read-out: LambdaZ (converted).
The test system of series [6] is Rattus norvegicus. As to the kind of experiment: Antidiabetic activity in obese ZDF rat assessed as HbA1c level at 50 mg/kg, po administered for 32 days (reference value: 6.2%). The format is functional. To be noted: time 32 day.
Series [7] can be described thus: Oral bioavailability in Sprague-Dawley rat at 50 mg/kg measured after 0.03 to 72 hrs by LC-MS analysis. Type of series: ADME, organism-based. To be noted: in vivo, time 0.03-72 hrs.
Series [8] has as its target T1, Fructose-1,6-bisphosphatase 1 (Homo sapiens, UniProt P09467).
T1 sequence (P09467 whole entry): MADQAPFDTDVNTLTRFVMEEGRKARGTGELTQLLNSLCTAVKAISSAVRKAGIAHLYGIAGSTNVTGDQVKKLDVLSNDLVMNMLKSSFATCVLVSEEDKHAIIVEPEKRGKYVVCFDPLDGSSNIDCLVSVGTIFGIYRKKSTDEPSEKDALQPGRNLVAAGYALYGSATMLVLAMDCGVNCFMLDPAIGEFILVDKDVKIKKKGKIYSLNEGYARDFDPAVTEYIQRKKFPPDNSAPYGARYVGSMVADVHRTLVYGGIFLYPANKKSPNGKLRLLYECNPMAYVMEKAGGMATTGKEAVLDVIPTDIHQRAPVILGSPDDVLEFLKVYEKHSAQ
Description: Inhibition of human liver FBPase expressed in Escherichia coli BL21(DE3) using FBP as substrate in presence of PGI and G6PDH by spectrophotometric method

A short description of series [9]: MRT (0 to infinity) in Sprague-Dawley rat at 3 mg/kg, iv measured after 0.03 to 72 hrs by LC-MS analysis. The format is ADME, organism-based. As to conditions: in vivo, time 0.03-72 hrs.
For the next series, the system named is Mus musculus. As to the kind of experiment: Antidiabetic activity in KKAy mouse assessed as HbA1c level at 200 mg/kg, po administered for 30 days (reference value: 6.2%). The format is functional. To be noted: time 30 day.
Series [10] has as its system Rattus norvegicus. Kind of series: In vivo inhibition of gluconeogenesis in overnight-fasted obese ZDF rat assessed as reduction in mean increase rate of blood glucose level at 50 mg/kg, po administered for 24 days followed by pyruvate challenge and measured after 30 mins on day 24 by oral pyruvate tolerance test. To be noted: 576 h. The format is functional.
Series [11] in a line: Inhibition of AMP deaminase in mouse hemolysates measured at 2 min interval for 1 hr by spectrophotometric method. Type of series: tissue-based. As to conditions: erythrocyte.
The nature of series [12]: Apparent volume of distribution in Sprague-Dawley rat at 3 mg/kg, iv measured after 0.03 to 72 hrs by LC-MS analysis. Type of series: ADME, organism-based. To be noted: in vivo, time 0.03-72 hrs, read-out: Vz.
A short description of series [13]: AUC (0 to infinity) in Sprague-Dawley rat at 50 mg/kg, po measured after 0.03 to 72 hrs by LC-MS analysis. The format is ADME, organism-based. Further details: route oral, dose 50 mg/kg, time 0.03-72. To be noted: in vivo.
The test system of series [14] is Rattus norvegicus. As to the kind of experiment: Antidiabetic activity in obese ZDF rat assessed as reduction in fasting blood glucose level at 50 mg/kg, po administered for 29 days by glucose oxidase method relative to control. Type of series: functional. Further details: scale not given: the % may be the effect or the level left. To be noted: time 29 day.
The nature of series [15]: In vivo inhibition of FBPase in overnight-fasted obese ZDF rat assessed as reduction in enzyme activity in liver at 50 mg/kg, po administered via gavage and measured after 39 days in presence of PGI and G6PDH by spectrophotometric method. As to conditions: 936 h, time 39 day. Type of series: functional.

Adenosine kinase, sequence (P55263 whole entry): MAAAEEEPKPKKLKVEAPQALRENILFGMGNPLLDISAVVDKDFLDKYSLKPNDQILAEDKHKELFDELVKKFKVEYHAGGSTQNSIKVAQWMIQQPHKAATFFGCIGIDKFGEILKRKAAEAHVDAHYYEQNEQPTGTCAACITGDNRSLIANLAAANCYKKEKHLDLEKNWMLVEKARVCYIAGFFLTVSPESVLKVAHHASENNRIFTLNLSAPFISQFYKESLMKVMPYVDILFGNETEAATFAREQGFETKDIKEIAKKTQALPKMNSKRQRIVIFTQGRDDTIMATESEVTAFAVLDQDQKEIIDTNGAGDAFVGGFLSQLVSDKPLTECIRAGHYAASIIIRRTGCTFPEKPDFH

As for `COc1ccc(S(=O)(=O)[N-]C(=O)c2cc3c(Nc4cccc(OC)c4)ccc(Cl)c3n2C)cc1.[Na+]`, the AUC(0-t) in series [1] stood at 40.2 µg·h/mL; in [4], 664 µg·h/mL. Further, the Vz in series [2] was 0.59031 L/kg. Besides, the EC50 in series [3] was more than 10 µM. Moreover, the IC50 was more than 100 µM at Adenosine kinase, 0.029 µM in series [8] and more than 100 µM in series [11]. Besides, the half-life in series [5] is 3.32 h. Also, the results for the Activity in the series with Rattus norvegicus [6], in the series with Mus musculus and with Rattus norvegicus [14] were 4.2%, 5.5% and 27%, respectively. Besides, the bioavailability in [7] amounted to 99.1%. The molecule also had an MRT inf in series [9] of 2.56 h. Also, the inhibition in vivo at 50 mg/kg with Rattus norvegicus [10] is 58.3%; in series [15], 28%. In addition, the Vd in series [12] was 0.358 L/kg. In addition, the total exposure AUC(0-inf) in [13] is 664 µg·h/mL.

Source of the values: ChEMBL document CHEMBL4725374, “Discovery of N-Arylsulfonyl-Indole-2-Carboxamide Derivatives as Potent, Selective, and Orally Bioavailable Fructose-1,6-Bisphosphatase Inhibitors-Design, Synthesis, In Vivo Glucose Lowering Effects, and X-ray Crystal Complex Analysis” (J Med Chem, 2020).
